Results: patent US20140066431A1, “Benzoxazepines as Inhibitors of PI3K/mTOR and Methods of Their Use and Manufacture” (Exelixis, Inc., priority 2010, published 2014)

Target: PI3Kα (Homo sapiens, UniProt P42336)
Experiment: PI3K biochemical assay (ATP consumption, luciferase-luciferin)
Conditions: 1.5 nM enzyme, 1 μM ATP, 10 μM PIP2
Experimental: PI3Kα activity is measured as the percent of ATP consumed following the kinase reaction using luciferase-luciferin-coupled chemiluminescence. Reactions were conducted in 384-well white, medium binding microtiter plates (Greiner). Kinase reactions were initiated by combining test compounds, ATP, substrate (PIP2), and kinase in a 20 μL volume in a buffer solution. The standard PI3Kalpha assay buffer is composed 50 mM Tris, pH 7.5, 1 mM EGTA, 10 mM MgCl2, 1 mM DTT and 0.03% CHAPS. The standard assay concentrations for enzyme, ATP, and substrate are 1.5 nM, 1 μM, and 10 μM, respectively. The reaction mixture was incubated at ambient temperature for approximately 2 h. Following the kinase reaction, a 10 μL aliquot of luciferase-luciferin mix (Promega Kinase-Glo) was added and the chemiluminescence signal measured using a Victor2 plate reader (Perkin Elmer). Total ATP consumption was limited to 40-60% and IC50 values of control compounds correlate well with literature references. Substituting PI3Kα with PI3Kβ, PI3Kγ, or PI3Kδ, the inhibitory activity of the compounds for the other isoforms of I3K were measured.

Chain of PI3Kα (P42336 whole entry): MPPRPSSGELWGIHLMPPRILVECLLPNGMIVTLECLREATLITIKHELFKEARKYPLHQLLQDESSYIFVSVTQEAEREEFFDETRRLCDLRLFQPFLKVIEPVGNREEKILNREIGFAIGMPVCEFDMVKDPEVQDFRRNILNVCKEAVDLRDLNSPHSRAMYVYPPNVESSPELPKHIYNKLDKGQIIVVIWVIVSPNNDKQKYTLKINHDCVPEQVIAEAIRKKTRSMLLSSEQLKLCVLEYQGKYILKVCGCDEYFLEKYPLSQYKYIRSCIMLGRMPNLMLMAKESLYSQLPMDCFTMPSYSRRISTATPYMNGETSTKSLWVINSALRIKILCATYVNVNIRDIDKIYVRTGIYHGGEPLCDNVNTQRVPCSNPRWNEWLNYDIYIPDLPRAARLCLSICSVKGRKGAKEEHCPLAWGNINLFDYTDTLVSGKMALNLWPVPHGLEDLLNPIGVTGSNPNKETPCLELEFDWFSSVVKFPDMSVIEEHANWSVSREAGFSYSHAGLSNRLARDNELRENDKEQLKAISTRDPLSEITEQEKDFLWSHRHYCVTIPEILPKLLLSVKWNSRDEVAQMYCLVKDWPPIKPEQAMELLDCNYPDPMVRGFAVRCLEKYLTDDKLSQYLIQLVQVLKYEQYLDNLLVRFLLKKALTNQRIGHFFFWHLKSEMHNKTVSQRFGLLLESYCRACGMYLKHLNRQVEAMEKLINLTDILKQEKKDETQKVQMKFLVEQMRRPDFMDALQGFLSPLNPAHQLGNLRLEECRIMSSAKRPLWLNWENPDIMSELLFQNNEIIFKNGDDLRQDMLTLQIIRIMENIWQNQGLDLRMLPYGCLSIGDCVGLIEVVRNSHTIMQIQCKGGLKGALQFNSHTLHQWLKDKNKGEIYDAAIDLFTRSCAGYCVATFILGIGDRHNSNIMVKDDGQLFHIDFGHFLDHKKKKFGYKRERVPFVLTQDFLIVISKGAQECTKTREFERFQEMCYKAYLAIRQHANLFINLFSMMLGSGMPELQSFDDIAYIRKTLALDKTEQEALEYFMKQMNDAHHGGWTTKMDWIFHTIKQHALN
Chain of PI3Kα (P27986 whole entry partner): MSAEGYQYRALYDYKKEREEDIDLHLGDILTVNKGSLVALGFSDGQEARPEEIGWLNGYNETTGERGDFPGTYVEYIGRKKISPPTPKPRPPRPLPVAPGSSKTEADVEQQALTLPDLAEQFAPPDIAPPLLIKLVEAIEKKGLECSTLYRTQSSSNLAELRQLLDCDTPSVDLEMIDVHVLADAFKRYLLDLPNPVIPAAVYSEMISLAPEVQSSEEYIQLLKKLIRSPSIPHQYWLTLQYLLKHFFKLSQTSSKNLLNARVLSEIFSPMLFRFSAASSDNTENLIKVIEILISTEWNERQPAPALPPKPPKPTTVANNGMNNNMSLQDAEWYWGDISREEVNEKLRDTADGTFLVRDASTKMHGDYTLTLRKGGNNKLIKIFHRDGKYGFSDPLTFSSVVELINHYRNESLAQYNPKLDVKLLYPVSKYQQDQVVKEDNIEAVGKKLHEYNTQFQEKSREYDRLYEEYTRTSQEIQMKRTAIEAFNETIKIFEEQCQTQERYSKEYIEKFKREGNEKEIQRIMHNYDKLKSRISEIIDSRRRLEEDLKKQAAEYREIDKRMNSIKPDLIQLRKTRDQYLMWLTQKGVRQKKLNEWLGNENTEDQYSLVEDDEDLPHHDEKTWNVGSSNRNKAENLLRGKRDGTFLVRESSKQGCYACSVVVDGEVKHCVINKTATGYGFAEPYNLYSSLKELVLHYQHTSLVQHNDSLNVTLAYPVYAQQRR

| IC50 (PI3Kα biochemical assay) | Compound |
| --- | --- |
| not active | Cc1nc2cc(-c3ccc4c(c3)CN(C(=O)N3CC[C@@](C)(O)C[C@@H]3c3ccccc3)CCO4)ccc2[nH]1 (racemic) [compound 133, (±)-(2R,4R)-4-methyl-1-{[7-(2-methyl-1H-benzimidazol-5-yl)-2,3-dihydro-1,4-benzoxazepin-4(5H)-yl]carbonyl}-2-phenylpiperidin-4-ol] |
| not active | Cc1nc2ccc(-c3ccc4c(c3)CN(C(=O)N3CCCCC3c3ccccc3C)CCO4)cc2[nH]1 (stereo not drawn) [compound 126, 7-(2-methyl-1H-benzimidazol-6-yl)-4-{[2-(2-methylphenyl)piperidin-1-yl]carbonyl}-2,3,4,5-tetrahydro-1,4-benzoxazepine] |
| not active | CCC1CC2(CCN(C(=O)N3CCOc4ccc(-c5ccc6nc(C)[nH]c6c5)cc4C3)CC2)CC(=O)N1 (stereo not drawn) [compound 155, 4-ethyl-9-{[7-(2-methyl-1H-benzimidazol-6-yl)-2,3-dihydro-1,4-benzoxazepin-4(5H)-yl]carbonyl}-3,9-diazaspiro[5.5]undecan-2-one] |
| not active | CCCCN(Cc1ccccc1)C(=O)N1CCOc2ccc(-c3ccc4nc(C)[nH]c4c3)cc2C1 [compound 173, N-butyl-7-(2-methyl-1H-benzimidazol-6-yl)-N-(phenylmethyl)-2,3-dihydro-1,4-benzoxazepine-4(5H)-carboxamide] |

Continued, compound first:

| Compound | IC50 (PI3Kα biochemical assay) |
| --- | --- |
| Cc1nc2ccc(-c3ccc4c(c3)CN(C(=O)N3CCCC[C@H]3c3ccccc3)CCO4)cc2[nH]1 [compound 65, 7-(2-methyl-1H-benzimidazol-6-yl)-4-{[(2S)-2-phenylpiperidin-1-yl]carbonyl}-2,3,4,5-tetrahydro-1,4-benzoxazepine] | not active |
| Cc1nc2ccc(-c3ccc4c(c3)CN(C(=O)N3CCCCC3Cc3ccccc3)CCO4)cc2[nH]1 (stereo not drawn) [compound 104, 7-(2-methyl-1H-benzimidazol-6-yl)-4-{[2-(phenylmethyl)piperidin-1-yl]carbonyl}-2,3,4,5-tetrahydro-1,4-benzoxazepine] | not active |

Target: mTOR/GbL/Raptor (mTORC1) (Homo sapiens, UniProt P42345)
Experiment: mTOR/GbL/Raptor (mTORC1) ELISA assay
Type: biochemical
Conditions: 0.2 nM mTORC1, 10 μM ATP, 50 nM 4E-BP1
Experimental: The measurement of mTORC1 enzyme activity was performed in an ELISA assay format following the phosphorylation of 4E-BP1 protein. All experiments were performed in the 384-well format. Generally, 0.5 μL DMSO containing varying concentrations of the test compound was mixed with 15 μL enzyme solution. Kinase reactions were initiated with the addition of 15 μL of substrates-containing solution. The assay conditions were as follows; 0.2 nM mTORC1, 10 μM ATP and 50 nM NHis-tagged 4E-BP1 in 20 mM Hepes, pH 7.2, 1 mM DTT, 50 mM NaCl, 10 mM MnCl2, 0.02 mg/mL BSA, 0.01% CHAPS, 50 mM β-glycerophosphate. Following an incubation of 120 minutes at ambient temperature, 20 μL of the reaction volume was transferred to a Ni-Chelate-coated 384-well plate. The binding step of the 4E-BP1 protein proceeded for 60 minutes, followed by washing 4 times each with 50 μL of Tris-buffered saline solution (TBS). Anti-phospho-4E-BP1 rabbit-IgG (20 μL, 1:5000) in 5% BSA-TBST (0.2% Tween-20 in TBS) was added and further incubated for 60 minutes. Incubation with a secondary HRP-tagged anti-IgG was similarly performed after washing off the primary antibody (4 washes of 50 μL). Following the final wash step with TBST, 20 μL of SuperSignal ELISA Femto (Pierce Biotechnology) was added and the luminescence measured using an EnVision plate reader.

| IC50 (mTORC1 ELISA) | Compound |
| --- | --- |
| not active | Cc1nc2ccc(-c3ccc4c(c3)CN(C(=O)N3CCN(C)CC3c3ccccc3)CCO4)cc2[nH]1 (stereo not drawn) [compound 144, 7-(2-methyl-1H-benzimidazol-6-yl)-4-[(4-methyl-2-phenylpiperazin-1-yl)carbonyl]-2,3,4,5-tetrahydro-1,4-benzoxazephin] |
| not active | Cc1nc2ccc(-c3ccc4c(c3)CN(C(=O)N3CCN(c5ccc([N+](=O)[O-])cc5)CC3)CCO4)cc2[nH]1 [compound 168, 7-(2-methyl-1H-benzimidazol-6-yl)-4-{[4-(4-nitrophenyl)piperazin-1-yl]carbonyl}-2,3,4,5-tetrahydro-1,4-benzoxazepine] |
| not active | Cc1nc2ccc(-c3ccc4c(c3)CN(C(=O)N3CCOCC3)CCO4)cc2[nH]1 [compound 132, 7-(2-methyl-1H-benzimidazol-6-yl)-4-(morpholin-4-ylcarbonyl)-2,3,4,5-tetrahydro-1,4-benzoxazepine] |
| not active | Cc1nc2ccc(-c3ccc4c(c3)CN(C(=O)N3CCN(C(=O)c5ccco5)CC3)CCO4)cc2[nH]1 [compound 158, 4-{[4-(furan-2-ylcarbonyl)piperazin-1-yl]carbonyl}-7-(2-methyl-1H-benzimidazol-6-yl)-2,3,4,5-tetrahydro-1,4-benzoxazepine] |
| not active | CC(=O)c1ccc(N2CCN(C(=O)N3CCOc4ccc(-c5ccc6nc(C)[nH]c6c5)cc4C3)CC2)cc1 [compound 169, 1-[4-(4-{[7-(2-methyl-1H-benzimidazol-6-yl)-2,3-dihydro-1,4-benzoxazepin-4(5H)-yl]carbonyl}piperazin-1-yl)phenyl]ethanone] |
| not active | CCOC(=O)CN(Cc1ccccc1)C(=O)N1CCOc2ccc(-c3ccc4nc(C)[nH]c4c3)cc2C1 [compound 151, ethyl N-{[7-[2-methyl-1H-benzimidazol-6-yl)-2,3-dihydro-1,4-benzoxazepin-4(5H)-yl]carbonyl}-N-(phenylmethyl)glycinate] |
| not active | Cc1nc2ccc(-c3ccc4c(c3)CN(C(=O)N3CCC(O)(C(F)(F)F)CC3c3ccc(F)c(F)c3)CCO4)cc2[nH]1 (stereo not drawn) [compound 119, 2-(3,4-difluorophenyl)-1-{[7-(2-methyl-1H-benzimidazol-6-yl)-2,3-dihydro-1,4-benzoxazepin-4(5H)-yl]carbonyl}-4-(trifluoromethyl)piperidin-4-ol] |

Second part, the compound before the results:

| Compound | IC50 (mTORC1 ELISA) |
| --- | --- |
| Cc1nc2ccc(-c3ccc4c(c3)CN(C(=O)N3CCCC3)CCO4)cc2[nH]1 [compound 87, 7-(2-methyl-1H-benzimidazol-6-yl)-4-(pyrrolidin-1-ylcarbonyl)-2,3,4,5-tetrahydro-1,4-benzoxazepine] | not active |
| Cc1nc2ccc(-c3ccc4c(c3)CN(C(=O)N3CC[S+]([O-])CC3)CCO4)cc2[nH]1 [compound 101, 7-(2-methyl-1H-benzimidazol-6-yl)-4-[(1-oxidothiomorpholin-4-yl)carbonyl]-2,3,4,5-tetrahydro-1,4-benzoxazepine] | not active |
| Cc1nc2ccc(-c3ccc4c(c3)CN(C(=O)N3CC[C@@H](O)C3)CCO4)cc2[nH]1 [compound 78, (3R)-1-{[7-(2-methyl-1H-benzimidazol-6-yl)-2,3-dihydro-1,4-benzoxazepin-4(5H)-yl]carbonyl}pyrrolidin-3-ol] | not active |
| Cc1nc2ccc(-c3ccc4c(c3)CN(C(=O)N3CCC(C5CCNCC5)CC3)CCO4)cc2[nH]1 [compound 71, 1-{[7-(2-methyl-1H-benzimidazol-6-yl)-2,3-dihydro-1,4-benzoxazepin-4(5H)-yl]carbonyl}-4,4′-bipiperidine] | not active |
| Cc1nc2ccc(-c3ccc4c(c3)CN(C(=O)N3[C@@H]5CC[C@H]3C[C@@H](CO)C5)CCO4)cc2[nH]1 [compound 112, (8-{[7-(2-methyl-1H-benzimidazol-6-yl)-2,3-dihydro-1,4-benzoxazepin-4(5H)-yl]carbonyl}-8-azabicyclo[3.2.1]oct-3-(endo)-yl)methanol] | not active |
| Cc1nc2ccc(-c3ccc4c(c3)CN(C(=O)N3CC[C@H](O)C3)CCO4)cc2[nH]1 [compound 82, (3S)-1-{[7-(2-methyl-1H-benzimidazol-6-yl)-2,3-dihydro-1,4-benzoxazepin-4(5H)-yl]carbonyl}pyrrolidin-3-ol] | not active |
| Cc1nc2ccc(-c3ccc4c(c3)CN(C(=O)N3CCCCC3c3cc(C(F)(F)F)cc(C(F)(F)F)c3)CCO4)cc2[nH]1 (stereo not drawn) [compound 115, 4-({2-[3,5-bis(trifluoromethyl)phenyl]piperidin-1-yl}carbonyl)-7-(2-methyl-1H-benzimidazol-6-yl)-2,3,4,5-tetrahydro-1,4-benzoxazepine] | not active |
| CC1CCN(C(=O)N2CCOc3ccc(-c4cc(NCc5ccccc5)[nH]n4)cc3C2)CC1 [compound 9, 3-{4-[(4-methylpiperidin-1-yl)carbonyl]-2,3,4,5-tetrahydro-1,4-benzoxazepin-7-yl}-N-(phenylmethyl)-1H-pyrazol-5-amine] | not active |
